Source: US7348402B2, “Antimicrobial peptide, its analogs and antimicrobial composition comprising them” (priority 2002, dated 2008)
No end group written: not given here.

Experiments:
Assay type in all cases: cell-based
E. coli = experiment: Cell penetration activity by confocal microscopy (FITC-labeled peptides); settings: FITC-labeled peptide applied to fixed E. coli for 5 minutes
Procedure: FIGS. 1A˜1D are the results of analyzing the cell penetration activity of the new antimicrobial peptides by confocal microscopy. To emphasize the location of the antimicrobial peptides, color was eliminated from the images. The white area in FIGS. 1A˜1D is the antimicrobial peptide penetrated within the cell.
The cell penetration activity of the peptides prepared in Example 1 was observed by confocal microscopy. After inoculating and culturing E. coli in trypticase soy broth at 37° C. overnight, they were inoculated in new media and cultured for 2 hours to exponential growth phase. After washing E. coli with 10 mM NAPB (sodium phosphate buffer) and diluting to 10^5 CFU/ml, the above diluted E. coli was fixed for 30 min on glass-slides coated with poly-L-lysine. The N-terminus of the peptides prepared in Example 1 was labeled with FITC (fluoresceinisothicyanate), and the labeled peptides were applied to E. coli fixed on the glass-slides for 5 minutes. The glass-slides were washed with 10 mM NAPB and observed them by confocal microscopy.

[1] = tested on: human red blood cells (hRBC); experiment: Hemolytic activity on human red blood cells
Procedure: After separating the precipitated human red blood cells (hRBC) from 3 ml of human blood, they were washed with PBS (phosphate buffered saline) and diluted to make the total volume of 20 ml. In 190 μl of the prepared hRBC solution, 10 μl of each peptide sample (4 μg/μl ) prepared in Example 1 was added to make the final concentration of 200 μg/ml, reacted for 1 h at 37° C. and centrifuged for 5 min at 4000 rpm. […] The absorbance of the sample treated with 0.2% Triton X-100 was set to represent 100% hemolysis and the percent (%) hemolysis of each sample was relatively calculated from each measured absorbance, as shown in Table 3.

[2] = tested on: Bacillus subtilis (ATCC 62037); settings: ATCC 62037, 12 h
Excerpt: (§1) The microorganisms used in the present invention include Gram-positive bacteria such as Bacillus subtilis (ATCC 62037), Staphylococcus aureus (ATCC 15752) and Streptococcus mutans (ATCC 25175), Gram-negative bacteria such as Escherichia coli (ATCC 27325), Salmonella enteritidis (ATCC 15277) and Pseudomonas putida (ATCC 17426) and fungi such as Candida albicans (ATCC 10231), Saccharomyces cerevisiae (ATCC 44774) and Cryptococcus neoformans (ATCC 34881), obtained from American Type Culture Collection (ATCC).
(§2) The antimicrobial activity of the peptides prepared in Example 1 was determined against microorganisms by 96-well microdilution minimal inhibitory concentration assay. After overnight culturing the bacteria and fungi in trypticase soy broth (TSB) and Saboraud (SAB) at 37° C. and 30° C., respectively, they were inoculated in new media and cultured for 2 hours to exponential growth phase. After diluting the microorganisms to 10^5 per 1 ml, 190 μl was inoculated in each 96-well plate, and 10 μl of serially diluted peptides were added in each well.

[3] = tested on: Candida albicans (ATCC 10231); settings: ATCC 10231, 12 h
Excerpt: as §1, §2

[4] = tested on: Cryptococcus neoformans (ATCC 34881); settings: ATCC 34881, 12 h
Excerpt: as §1, §2

[5] = tested on: Escherichia coli (ATCC 27325); settings: ATCC 27325, 12 h
Excerpt: as §1, §2

[6] = tested on: Pseudomonas putida (ATCC 17426); settings: ATCC 17426, 12 h
Excerpt: as §1, §2

[7] = tested on: Saccharomyces cerevisiae (ATCC 44774); settings: ATCC 44774, 12 h
Excerpt: as §1, §2

[8] = tested on: Salmonella enteritidis (ATCC 15277); settings: ATCC 15277, 12 h
Excerpt: as §1, §2

[9] = tested on: Staphylococcus aureus (ATCC 15752); settings: ATCC 15752, 12 h
Excerpt: as §1, §2

[10] = tested on: Streptococcus mutans (ATCC 25175); settings: ATCC 25175, 12 h
Excerpt: as §1, §2

Molecule | cell penetration activity (E. coli) | A567 ([1]; absorbance of supernatant diluted 10 times, peptide 200 μg/ml, 1 h at 37° C.) | hemolysis of hRBC (in words) ([1]; concentration of 200 μg/ml) | Minimum Inhibitory Concentration [2] | Minimum Inhibitory Concentration [3] | Minimum Inhibitory Concentration [4] | Minimum Inhibitory Concentration [5] | Minimum Inhibitory Concentration [6] | Minimum Inhibitory Concentration [7] | Minimum Inhibitory Concentration [8] | Minimum Inhibitory Concentration [9] | Minimum Inhibitory Concentration [10]
33 (KLVRNWPIGKLVRKLVRKLVR; antimicrobial peptide) [compound 33] | penetrate into E. coli cells |  |  |  |  |  |  |  |  |  |  | 
GIGKFLHSAKKFGKAFVGEIMNS [Magainin, magainin, reference compound] | bind with cell membrane |  |  |  |  |  |  |  |  |  |  | 
CC[C@H](C)[C@H](NC(=O)CN)C(=O)NCC(=O)N[C@@H](C)C(=O)N[C@H](C(=O)N[C@@H](CC(C)C)C(=O)N[C@@H](CCCCN)C(=O)N[C@H](C(=O)N[C@@H](CC(C)C)C(=O)N[C@H](C(=O)N[C@H](C(=O)NCC(=O)N[C@@H](CC(C)C)C(=O)N1CCC[C@H]1C(=O)N[C@@H](C)C(=O)N[C@@H](CC(C)C)C(=O)N[C@H](C(=O)N[C@@H](CO)C(=O)N[C@@H](Cc1c[nH]c2ccccc12)C(=O)N[C@H](C(=O)N[C@@H](CCCCN)C(=O)N[C@@H](CCCNC(=N)N)C(=O)N[C@@H](CCCCN)C(=O)N[C@@H](CCCNC(=N)N)C(=O)N[C@@H](CCC(N)=O)C(=O)N[C@@H](CCC(N)=O)C(N)=O)[C@@H](C)CC)[C@@H](C)CC)[C@@H](C)O)[C@@H](C)O)C(C)C)C(C)C [Melittin, melittin] |  | 3.17 | destroy almost all hRBC |  |  |  |  |  |  |  |  | 
SEQ ID NO: 1 (RVVRQWPIGRVVRRVVRRVVR; antimicrobial peptide) | penetrate into E. coli cells |  |  |  |  |  |  |  |  |  |  | 
RLVKNWPIGRLVKRLVKRLVK-NH2 [compound 70] |  |  |  | 1 µg/mL | 1 µg/mL | 1 µg/mL | 1 µg/mL | 1 µg/mL | 1 µg/mL | 1 µg/mL | 1 µg/mL | 2 µg/mL
KVVRKVVRKVVRQWPIGKVVR [compound 44] |  |  |  | 2 µg/mL | 2 µg/mL | 1 µg/mL | 1 µg/mL | 1 µg/mL | 1 µg/mL | 1 µg/mL | 1 µg/mL | 2 µg/mL
RVVKRVVKRVVKNWPIGRVVK [compound 60] |  |  |  | 1 µg/mL | 1 µg/mL | 1 µg/mL | 2 µg/mL | 1 µg/mL | 1 µg/mL | 2 µg/mL | 2 µg/mL | 2 µg/mL
KLLKNWPIGKLLKKLLKKLLK [compound 21] |  |  |  | 1 µg/mL | 2 µg/mL | 1 µg/mL | 1 µg/mL | 1 µg/mL | 1 µg/mL | 2 µg/mL | 1 µg/mL | 2 µg/mL
RLVRNWPIGRLVRRLVRRLVR [compound 24] |  |  |  | 1 µg/mL | 2 µg/mL | 1 µg/mL | 1 µg/mL | 1 µg/mL | 2 µg/mL | 2 µg/mL | 1 µg/mL | 1 µg/mL
KVVKNWPIGKVVKKVVKKVVK [compound 19] |  |  |  | 2 µg/mL | 1 µg/mL | 1 µg/mL | 2 µg/mL | 1 µg/mL | 2 µg/mL | 1 µg/mL | 1 µg/mL | 1 µg/mL
RVLKRVLKRVLKQWPIGRVLK [compound 47] |  |  |  | 1 µg/mL | 1 µg/mL | 1 µg/mL | 1 µg/mL | 1 µg/mL | 2 µg/mL | 1 µg/mL | 1 µg/mL | 2 µg/mL
RVVRRVVRRVVRNWPIGRVVR [compound 52] |  |  |  | 1 µg/mL | 1 µg/mL | 1 µg/mL | 1 µg/mL | 1 µg/mL | 1 µg/mL | 2 µg/mL | 1 µg/mL | 2 µg/mL
